In patent US20150246938A1, “NOVEL OLEFIN DERIVATIVE” (SHIONOGI & CO., LTD., priority 2011, published 2015):
Where two headings read alike, the source gives them in different places.

Columns and labels:
[1] = molecular target: T1, recombinant human ACC1 (Homo sapiens, UniProt Q13085); assay: Measurement of inhibitory activity on human ACC1 (MALDI-TOF MS, acetyl CoA to malonyl CoA conversion); type: biochemical
T1 construct: a cDNA encoding human ACC1 (1-2346) was cloned from human liver cDNA library (BioChain); myc-tag (C); His-tag (C); made in house; host or cells: Sf-9 insect cells (baculovirus, FlashBACGOLD)
Description: Recombinant baculovirus was generated using FlashBACGOLD system (Oxford Expression Technologies) according to the manufacturer's protocol. To express human ACC1, Sf-9 cells were infected with recombinant baculovirus. After infected cells were disrupted, the filtrated lysate was subjected to Ni-affinity chromatography and anion-exchange chromatography. The fractions containing human ACC1 protein were pooled as recombinant human ACC1 solution.
Recombinant human ACC1 and recombinant human ACC2, which were prepared by the method mentioned above, were preincubated with assay buffer solution (50 mM HEPES-KOH (pH 7.4), 10 mM magnesium chloride, 6-10 mM potassium citrate, 4 mM reduced form of glutathione, 1.5 mg/ml bovine serum albumin) for one hour. Then, 0.2 μL of each this invention compound solution (in DMSO) were dispensed to 384-well microplate, 5 μL of the preincubated enzyme solution and 5 μL of substrate solution (50 mM HEPES-KOH (pH 7.4), 1 mM ATP, 0.8 mM acetyl CoA and 25-50 mM potassium bicarbonate) were added to microplate. After centrifugation and shaking, the reaction mixtures were incubated in a humidified box at room temperature for 1 to 3 hours. After the incubation, the enzyme reactions were stopped by the addition of EDTA. Then, after the samples were cocrystallized with CHCA (α-cyano-4-hydroxy cinnamic acid) matrices on MALDI target plate, by using the matrix assist laser […] time-of-flight mass spectrometer (MALDI-TOF MS), samples were measured in reflector negative mode. Deprotonated ions of acetyl CoA (AcCoA) of substrate and malonyl CoA (MalCoA) of the reaction product were detected, then, the conversion rates of acetyl CoA to malonyl CoA was calculated by the intensity of [MalCoA-H]-/(Intensity of [MalCoA-H]-+Intensity of [AcCoA-H]-) using each signal strength. […] In addition, potassium citrate concentrations in assay buffer solution, potassium hydrogen carbonate concentrations in substrate solution and incubation time were adjusted by each lot of enzyme.

[2] = molecular target: T2, recombinant human ACC2 (Homo sapiens, UniProt O00763); assay: Measurement of inhibitory activity on human ACC2 (MALDI-TOF MS, acetyl CoA to malonyl CoA conversion); type: biochemical
T2 construct: a cDNA encoding human ACC2 (27-2458) was cloned from human kidney cDNA library (Clontech); His-tag (N); made in house; host or cells: Sf-9 insect cells (Bac-to-Bac baculovirus)
Description: To express human ACC2, Sf-9 cells were infected with recombinant baculovirus. After infected cells were disrupted, the filtrated lysate was subjected to Ni-affinity chromatography and anion-exchange chromatography. The fractions containing human ACC2 protein were pooled as recombinant human ACC2 solution.
Recombinant human ACC1 and recombinant human ACC2, which were prepared by the method mentioned above, were preincubated with assay buffer solution (50 mM HEPES-KOH (pH 7.4), 10 mM magnesium chloride, 6-10 mM potassium citrate, 4 mM reduced form of glutathione, 1.5 mg/ml bovine serum albumin) for one hour. Then, 0.2 μL of each this invention compound solution (in DMSO) were dispensed to 384-well microplate, 5 μL of the preincubated enzyme solution and 5 μL of substrate solution (50 mM HEPES-KOH (pH 7.4), 1 mM ATP, 0.8 mM acetyl CoA and 25-50 mM potassium bicarbonate) were added to microplate. After centrifugation and shaking, the reaction mixtures were incubated in a humidified box at room temperature for 1 to 3 hours. After the incubation, the enzyme reactions were stopped by the addition of EDTA. Then, after the samples were cocrystallized with CHCA (α-cyano-4-hydroxy cinnamic acid) matrices on MALDI target plate, by using the matrix assist laser deionization time-of-flight mass spectrometer (MALDI-TOF MS), samples were measured in reflector negative mode. Deprotonated ions of acetyl CoA (AcCoA) of substrate and malonyl CoA (MalCoA) of the reaction product were detected, then, the conversion rates of acetyl CoA to malonyl CoA was calculated by the intensity of [MalCoA-H]-/(Intensity of [MalCoA-H]-+Intensity of [AcCoA-H]-) using each signal strength. […] In addition, potassium citrate concentrations in assay buffer solution, potassium hydrogen carbonate concentrations in substrate solution and incubation time were adjusted by each lot of enzyme.

[3] = recombinant human ACC1, MALDI-TOF MS readout, read-out: 50% inhibitory concentration (1050) on human ACCT

T2 sequence (O00763 27-2458): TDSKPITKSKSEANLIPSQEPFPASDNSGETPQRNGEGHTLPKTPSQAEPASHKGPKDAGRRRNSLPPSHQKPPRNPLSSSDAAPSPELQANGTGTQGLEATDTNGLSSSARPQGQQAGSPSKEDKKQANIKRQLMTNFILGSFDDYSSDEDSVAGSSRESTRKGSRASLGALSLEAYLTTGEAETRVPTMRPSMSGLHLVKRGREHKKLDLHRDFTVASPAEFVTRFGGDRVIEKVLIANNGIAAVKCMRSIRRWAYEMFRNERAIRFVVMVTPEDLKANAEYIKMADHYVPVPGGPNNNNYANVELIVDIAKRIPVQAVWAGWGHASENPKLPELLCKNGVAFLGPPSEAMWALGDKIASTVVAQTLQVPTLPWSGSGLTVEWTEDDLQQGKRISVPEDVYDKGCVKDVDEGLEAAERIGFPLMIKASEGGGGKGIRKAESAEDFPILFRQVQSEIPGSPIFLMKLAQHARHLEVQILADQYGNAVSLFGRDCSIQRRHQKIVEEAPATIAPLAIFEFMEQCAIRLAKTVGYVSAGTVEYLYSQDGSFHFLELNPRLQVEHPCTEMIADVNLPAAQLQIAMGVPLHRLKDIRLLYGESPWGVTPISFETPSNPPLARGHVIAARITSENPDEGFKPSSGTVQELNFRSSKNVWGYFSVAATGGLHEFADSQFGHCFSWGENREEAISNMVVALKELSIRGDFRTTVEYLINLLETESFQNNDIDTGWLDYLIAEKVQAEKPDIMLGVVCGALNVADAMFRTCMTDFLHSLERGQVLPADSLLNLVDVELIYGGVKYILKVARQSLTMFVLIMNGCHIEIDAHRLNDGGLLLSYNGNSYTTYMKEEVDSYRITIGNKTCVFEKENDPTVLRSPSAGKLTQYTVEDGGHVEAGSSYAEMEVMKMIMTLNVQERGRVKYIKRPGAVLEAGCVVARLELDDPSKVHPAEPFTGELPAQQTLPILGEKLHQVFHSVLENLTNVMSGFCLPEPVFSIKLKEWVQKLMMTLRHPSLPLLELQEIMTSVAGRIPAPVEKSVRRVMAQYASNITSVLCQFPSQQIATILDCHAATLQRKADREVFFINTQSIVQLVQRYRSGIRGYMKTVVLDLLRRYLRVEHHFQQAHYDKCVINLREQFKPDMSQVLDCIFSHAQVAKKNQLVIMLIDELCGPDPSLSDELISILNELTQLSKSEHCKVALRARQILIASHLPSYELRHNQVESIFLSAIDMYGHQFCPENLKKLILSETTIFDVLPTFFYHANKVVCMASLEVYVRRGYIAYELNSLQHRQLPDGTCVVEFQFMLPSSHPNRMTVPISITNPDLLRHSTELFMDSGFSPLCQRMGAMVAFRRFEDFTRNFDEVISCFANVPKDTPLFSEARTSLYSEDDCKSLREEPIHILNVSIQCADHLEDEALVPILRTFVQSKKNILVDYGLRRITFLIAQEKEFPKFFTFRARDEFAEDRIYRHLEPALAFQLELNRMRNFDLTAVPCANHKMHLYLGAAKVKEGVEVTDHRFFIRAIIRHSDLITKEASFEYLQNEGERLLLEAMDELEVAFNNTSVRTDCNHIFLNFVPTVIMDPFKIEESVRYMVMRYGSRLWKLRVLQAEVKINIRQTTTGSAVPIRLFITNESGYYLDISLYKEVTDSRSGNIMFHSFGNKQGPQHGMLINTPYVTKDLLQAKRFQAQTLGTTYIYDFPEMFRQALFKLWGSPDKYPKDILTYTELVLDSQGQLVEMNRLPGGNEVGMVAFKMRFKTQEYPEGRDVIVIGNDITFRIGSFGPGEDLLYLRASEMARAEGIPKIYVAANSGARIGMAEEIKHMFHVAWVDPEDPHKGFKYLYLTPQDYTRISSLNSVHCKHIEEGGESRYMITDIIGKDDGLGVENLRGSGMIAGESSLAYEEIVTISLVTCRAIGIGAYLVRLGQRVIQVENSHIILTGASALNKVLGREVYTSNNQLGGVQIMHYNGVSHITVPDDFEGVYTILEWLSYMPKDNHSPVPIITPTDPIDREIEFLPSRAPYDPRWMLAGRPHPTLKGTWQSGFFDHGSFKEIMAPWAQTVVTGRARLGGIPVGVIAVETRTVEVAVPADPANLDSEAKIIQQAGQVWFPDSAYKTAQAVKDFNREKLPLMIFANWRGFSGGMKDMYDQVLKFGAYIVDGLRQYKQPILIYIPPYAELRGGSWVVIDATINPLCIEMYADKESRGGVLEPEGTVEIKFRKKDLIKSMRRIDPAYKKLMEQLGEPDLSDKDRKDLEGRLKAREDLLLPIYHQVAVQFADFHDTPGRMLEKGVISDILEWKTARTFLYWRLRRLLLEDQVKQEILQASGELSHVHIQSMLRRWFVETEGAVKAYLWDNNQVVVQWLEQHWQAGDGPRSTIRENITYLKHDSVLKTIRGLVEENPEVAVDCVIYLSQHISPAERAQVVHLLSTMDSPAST

Row | IC50 [1, 3] | other results | Compound
1 | > 100 µM | – | CC(=O)N[C@@H](C)/C=C/c1cnc(Oc2ccc(OCC3CC3)cc2Cl)s1 [Compound I-1]
2 | > 100 µM | – | CCCc1ccc(Oc2ccc(/C=C/[C@H](C)NC(C)=O)cn2)c(Cl)c1 [Compound I-30]
3 | – | IC50 [1]: > 100 µM | CCOc1ccc(Cc2ccc(/C=C/[C@H](C)NC(C)=O)cn2)c(Cl)c1 [Compound I-60]
4 | > 100 µM | – | C[C@@H](/C=C/c1cnc(Oc2ccc(OCC3CC3)cc2Cl)s1)NC(=O)CC(=O)OC(C)(C)C [Compound I-100]
5 | > 100 µM | – | COC(=O)CCCCC(=O)N[C@@H](C)/C=C/c1cnc(Oc2ccc(OCC3CC3)cc2Cl)s1 [Compound I-130]
6 | > 100 µM | – | C[C@@H](/C=C/c1cnc(Oc2ccc(OCC3CC3)cc2Cl)s1)NC(=O)c1ccnc(N(C)C)c1 [Compound I-160]
7 | > 100 µM | – | COC(=O)N[C@@H](C)/C=C/c1cnc(Oc2ccc(OCC3CC3)cc2Cl)s1 [Compound I-180]
8 | > 100 µM | – | CC(C)NC(=O)c1cc(C(=O)N[C@@H](C)/C=C/c2cnc(Oc3ccc(OCC4CC4)cc3Cl)s2)ccn1 [Compound I-210]
9 | > 100 µM | – | CNC(=O)COc1cc(C(=O)N[C@@H](C)/C=C/c2cnc(Oc3ccc(OCC4CC4)cc3Cl)s2)ccn1 [Compound I-250]
10 | > 100 µM | IC50 [2]: 0.018 µM | CC(=O)N[C@@H](C)/C=C/c1ccc(Oc2ccc(C(C)(C)C)cc2Cl)nc1 [Compound I-300]
11 | – | IC50 [1]: > 100 µM; IC50 ([2]; inhibition activity on human ACC2, Table 82, read-out: IC50): 0.23 µM | CCNC(=O)c1cc(C(=O)N[C@@H](C)/C=C/c2cnn(Cc3ccc(OCC4CC4)c(Cl)c3Cl)c2)ccn1 [Compound I-320]
12 | – | IC50 [1]: > 100 µM; IC50 [2]: 0.54 µM | CCCc1ccc(Oc2ccc(/C=C/[C@H](C)NC(=O)CN)cn2)c(Cl)c1 [Compound I-390]
13 | > 100 µM | IC50 [2]: 0.12 µM | CC(=O)N[C@@H](C)/C=C/c1ccc(Oc2ccc(-c3ncns3)cc2Cl)nc1 [Compound I-420]
14 | – | IC50 [1]: > 100 µM; IC50 ([2]; inhibition activity on human ACC2, Table 84, read-out: IC50): 0.78 µM | CCCc1ccc(Oc2ccc(/C=C/[C@H](C)NC(C)=O)cn2)c(OC)c1 [Compound I-438]
